From the NIST ThermoML archive (doi:10.1007/s10765-010-0766-0)
Where “and” joins values, the source holds several entries; their conditions need not be identical. Identical values can stand only once. Numbers after ± are expanded uncertainties.

Details: Liquid, Pycnometric method

## FC(F)C(F)(F)OCC(F)(F)F [2,2,2-trifluoroethyl 1,1,2,2-tetrafluoroethyl ether]
342.15 K, 16809 kPa
  mass density: 1418.3 ± 2.3 kg/m3
342.15 K, 16812 kPa
  mass density: 1418.3 ± 2.3 kg/m3
343.15 K, 17505 kPa
  mass density: 1418.1 ± 2.3 kg/m3
343.15 K, 17508 kPa
  mass density: 1418.1 ± 2.3 kg/m3
344.15 K, 18201 kPa
  mass density: 1418 ± 2.3 kg/m3
344.15 K, 18203 kPa
  mass density: 1418 ± 2.3 kg/m3
345.15 K, 18896 kPa
  mass density: 1417.8 ± 2.3 kg/m3
345.15 K, 18898 kPa
  mass density: 1417.8 ± 2.3 kg/m3
346.15 K, 19590 kPa
  mass density: 1417.7 ± 2.3 kg/m3
346.15 K, 19592 kPa
  mass density: 1417.7 ± 2.3 kg/m3
347.15 K, 20282 kPa
  mass density: 1417.5 ± 2.3 kg/m3
347.15 K, 20287 kPa
  mass density: 1417.6 ± 2.3 kg/m3
348.15 K, 20974 kPa
  mass density: 1417.4 ± 2.3 kg/m3
348.15 K, 20978 kPa
  mass density: 1417.4 ± 2.3 kg/m3
349.15 K, 21666 kPa
  mass density: 1417.3 ± 2.3 kg/m3
349.15 K, 21671 kPa
  mass density: 1417.3 ± 2.3 kg/m3
350.15 K, 22357 kPa
  mass density: 1417.1 ± 2.3 kg/m3
350.15 K, 22360 kPa
  mass density: 1417.2 ± 2.3 kg/m3
351.15 K, 23047 kPa
  mass density: 1417 ± 2.3 kg/m3
351.15 K, 23050 kPa
  mass density: 1417 ± 2.3 kg/m3
352.15 K, 23735 kPa
  mass density: 1416.9 ± 2.3 kg/m3
352.15 K, 23739 kPa
  mass density: 1416.9 ± 2.3 kg/m3
353.15 K, 24423 kPa
  mass density: 1416.8 ± 2.3 kg/m3
353.15 K, 24426 kPa
  mass density: 1416.8 ± 2.3 kg/m3
354.15 K, 25110 kPa
  mass density: 1416.6 ± 2.3 kg/m3
354.15 K, 25114 kPa
  mass density: 1416.7 ± 2.3 kg/m3
355.15 K, 25797 kPa
  mass density: 1416.5 ± 2.3 kg/m3
355.15 K, 25801 kPa
  mass density: 1416.5 ± 2.3 kg/m3
356.15 K, 26482 kPa
  mass density: 1416.4 ± 2.3 kg/m3
356.15 K, 26486 kPa
  mass density: 1416.4 ± 2.3 kg/m3
357.15 K, 27166 kPa
  mass density: 1416.3 ± 2.3 kg/m3
357.15 K, 27171 kPa
  mass density: 1416.3 ± 2.3 kg/m3
358.15 K, 27851 kPa
  mass density: 1416.2 ± 2.3 kg/m3
358.15 K, 27855 kPa
  mass density: 1416.2 ± 2.3 kg/m3
359.15 K, 5632 kPa
  mass density: 1334.4 ± 2.2 kg/m3
359.15 K, 5637 kPa
  mass density: 1334.4 ± 2.2 kg/m3
359.15 K, 28535 kPa
  mass density: 1416.1 ± 2.3 kg/m3
359.15 K, 28538 kPa
  mass density: 1416.1 ± 2.3 kg/m3
360.15 K, 6174 kPa
  mass density: 1334.2 ± 2.2 kg/m3
360.15 K, 6180 kPa
  mass density: 1334.2 ± 2.2 kg/m3
360.15 K, 29217 kPa
  mass density: 1415.9 ± 2.3 kg/m3
360.15 K, 29220 kPa
  mass density: 1416 ± 2.3 kg/m3
361.15 K, 6718 kPa
  mass density: 1334.1 ± 2.2 kg/m3
361.15 K, 6724 kPa
  mass density: 1334.1 ± 2.2 kg/m3
361.15 K, 29899 kPa
  mass density: 1415.8 ± 2.3 kg/m3
361.15 K, 29902 kPa
  mass density: 1415.9 ± 2.3 kg/m3
362.15 K, 7261 kPa
  mass density: 1333.9 ± 2.2 kg/m3
362.15 K, 7266 kPa
  mass density: 1333.9 ± 2.2 kg/m3
363.15 K, 7803 kPa
  mass density: 1333.8 ± 2.2 kg/m3
363.15 K, 7809 kPa
  mass density: 1333.8 ± 2.2 kg/m3
364.15 K, 8346 kPa
  mass density: 1333.6 ± 2.2 kg/m3
364.15 K, 8350 kPa
  mass density: 1333.6 ± 2.2 kg/m3
365.15 K, 8888 kPa
  mass density: 1333.5 ± 2.2 kg/m3
365.15 K, 8892 kPa
  mass density: 1333.5 ± 2.2 kg/m3
366.15 K, 9430 kPa
  mass density: 1333.3 ± 2.2 kg/m3
366.15 K, 9434 kPa
  mass density: 1333.4 ± 2.2 kg/m3
367.15 K, 9971 kPa
  mass density: 1333.2 ± 2.2 kg/m3
367.15 K, 9976 kPa
  mass density: 1333.2 ± 2.2 kg/m3
368.15 K, 10512 kPa
  mass density: 1333.1 ± 2.2 kg/m3
368.15 K, 10516 kPa
  mass density: 1333.1 ± 2.2 kg/m3
369.15 K, 11053 kPa
  mass density: 1332.9 ± 2.2 kg/m3
369.15 K, 11057 kPa
  mass density: 1332.9 ± 2.2 kg/m3
370.15 K, 11593 kPa
  mass density: 1332.8 ± 2.2 kg/m3
370.15 K, 11598 kPa
  mass density: 1332.8 ± 2.2 kg/m3
371.15 K, 12133 kPa
  mass density: 1332.7 ± 2.2 kg/m3
371.15 K, 12137 kPa
  mass density: 1332.7 ± 2.2 kg/m3
372.15 K, 12673 kPa
  mass density: 1332.5 ± 2.2 kg/m3
372.15 K, 12677 kPa
  mass density: 1332.6 ± 2.2 kg/m3
373.15 K, 13212 kPa
  mass density: 1332.4 ± 2.2 kg/m3
373.15 K, 13216 kPa
  mass density: 1332.4 ± 2.2 kg/m3
374.15 K, 13752 kPa
  mass density: 1332.3 ± 2.2 kg/m3
374.15 K, 13756 kPa
  mass density: 1332.3 ± 2.2 kg/m3
375.15 K, 14290 kPa
  mass density: 1332.2 ± 2.2 kg/m3
375.15 K, 14294 kPa
  mass density: 1332.2 ± 2.2 kg/m3
376.15 K, 14828 kPa
  mass density: 1332 ± 2.2 kg/m3
376.15 K, 14831 kPa
  mass density: 1332 ± 2.2 kg/m3
377.15 K, 15366 kPa
  mass density: 1331.9 ± 2.2 kg/m3
377.15 K, 15369 kPa
  mass density: 1331.9 ± 2.2 kg/m3
378.15 K, 15904 kPa
  mass density: 1331.8 ± 2.2 kg/m3
378.15 K, 15906 kPa
  mass density: 1331.8 ± 2.2 kg/m3
379.15 K, 16441 kPa
  mass density: 1331.7 ± 2.2 kg/m3
379.15 K, 16443 kPa
  mass density: 1331.7 ± 2.2 kg/m3
380.15 K, 16977 kPa
  mass density: 1331.5 ± 2.2 kg/m3
380.15 K, 16980 kPa
  mass density: 1331.5 ± 2.2 kg/m3
381.15 K, 17514 kPa
  mass density: 1331.4 ± 2.2 kg/m3
381.15 K, 17515 kPa
  mass density: 1331.4 ± 2.2 kg/m3
382.15 K, 18050 kPa
  mass density: 1331.3 ± 2.2 kg/m3
382.15 K, 18051 kPa
  mass density: 1331.3 ± 2.2 kg/m3
383.15 K, 18585 kPa
  mass density: 1331.2 ± 2.2 kg/m3
383.15 K, 18586 kPa
  mass density: 1331.2 ± 2.2 kg/m3
384.15 K, 19120 kPa
  mass density: 1331.1 ± 2.2 kg/m3
384.15 K, 19121 kPa
  mass density: 1331.1 ± 2.2 kg/m3
385.15 K, 19655 kPa
  mass density: 1330.9 ± 2.2 kg/m3
385.15 K, 19656 kPa
  mass density: 1330.9 ± 2.2 kg/m3
386.15 K, 20189 kPa
  mass density: 1330.8 ± 2.2 kg/m3
387.15 K, 20723 kPa
  mass density: 1330.7 ± 2.2 kg/m3
388.15 K, 21256 kPa
  mass density: 1330.6 ± 2.2 kg/m3
389.15 K, 21789 kPa
  mass density: 1330.5 ± 2.2 kg/m3
390.15 K, 22322 kPa
  mass density: 1330.4 ± 2.2 kg/m3
391.15 K, 22854 kPa
  mass density: 1330.3 ± 2.2 kg/m3
391.15 K, 22855 kPa
  mass density: 1330.3 ± 2.2 kg/m3
392.15 K, 23385 kPa
  mass density: 1330.2 ± 2.2 kg/m3
392.15 K, 23386 kPa
  mass density: 1330.2 ± 2.2 kg/m3
393.15 K, 23917 kPa
  mass density: 1330 ± 2.2 kg/m3 and 1330.1 ± 2.2 kg/m3
394.15 K, 24448 kPa
  mass density: 1329.9 ± 2.2 kg/m3
395.15 K, 24978 kPa
  mass density: 1329.8 ± 2.2 kg/m3
396.15 K, 25507 kPa
  mass density: 1329.7 ± 2.2 kg/m3
396.15 K, 25508 kPa
  mass density: 1329.7 ± 2.2 kg/m3
397.15 K, 26037 kPa
  mass density: 1329.6 ± 2.2 kg/m3
397.15 K, 26038 kPa
  mass density: 1329.6 ± 2.2 kg/m3
398.15 K, 26566 kPa
  mass density: 1329.5 ± 2.2 kg/m3
398.15 K, 26567 kPa
  mass density: 1329.5 ± 2.2 kg/m3
399.15 K, 27094 kPa
  mass density: 1329.4 ± 2.2 kg/m3
399.15 K, 27096 kPa
  mass density: 1329.4 ± 2.2 kg/m3
400.15 K, 27622 kPa
  mass density: 1329.3 ± 2.2 kg/m3
400.15 K, 27623 kPa
  mass density: 1329.3 ± 2.2 kg/m3
401.15 K, 28150 kPa
  mass density: 1329.2 ± 2.2 kg/m3
401.15 K, 28151 kPa
  mass density: 1329.2 ± 2.2 kg/m3
402.15 K, 28677 kPa
  mass density: 1329.1 ± 2.2 kg/m3
402.15 K, 28678 kPa
  mass density: 1329.2 ± 2.2 kg/m3
403.15 K, 29204 kPa
  mass density: 1329 ± 2.2 kg/m3
403.15 K, 29205 kPa
  mass density: 1329.1 ± 2.2 kg/m3
404.15 K, 29730 kPa
  mass density: 1329 ± 2.2 kg/m3
404.15 K, 29732 kPa
  mass density: 1329 ± 2.2 kg/m3
